Patent publication US20230265068A1, “TRANSIENT RECEPTOR POTENTIAL CANONICAL 3 INHIBITORS AND METHODS OF USE THEREOF” (University of Tennessee Research Foundation, priority 2020, published 2023)

Molecular target: T1, hTRPM8 (Homo sapiens, UniProt Q7Z2W7)
T1 construct: expressed in transfected cells; host or cells: HEK293, transient transfection, pMO vector
Experiment: whole-cell patch clamp selectivity, HEK 293 cells overexpressing hTRPM8
Assay type: cell-based
Settings: HEK293, with agonist, solutions without Ca2+, read-out: % of the current of hTRPM8 inhibited
Method: Human embryonic kidney 293 (HEK293; catalog number CRL-1573) cells were cultured in Dulbecco's modified Eagle's medium (Invitrogen) supplemented with 10% fetal bovine serum and 1% penicillin-streptomycin at 37° C. and 5% CO2. Constructs cloned in pMO (a pcDNA3-modified vector) were co-transfected with GFP-pMO, using Lipofectamine 2000 (Invitrogen) according to the manufacturer's instructions. Macroscopic currents in the whole-cell patch clamp configuration were recorded 18-24 h post-transfection. The extracellular solution contained 140 mM NaCl, 6 mM KCl, 2 mM MgCl2, 10 mM HEPES, and 10 mM glucose (pH 7.4). Pipettes were made of borosilicate glass (outer diameter, 1.5 mm; inner diameter, 1.10 mm; Sutter Instruments) and fire-polished with a resistance between 2.8 and 4.0 megaohms when filled with an intracellular solution that contained 140 mM CsCl, 5 mM EGTA, and 10 mM HEPES, pH 7.2. Currents were recorded with a Multiclamp 700B amplifier (Molecular Devices) using a 1-s ramp from −100 to 100 mV. […] Data were acquired with a sampling rate of 20 kHz, low-pass filtered (10 kHz), and analyzed offline using Clampfit v10.4.2.0 (Molecular Devices). […]

T1 sequence (Q7Z2W7 whole entry): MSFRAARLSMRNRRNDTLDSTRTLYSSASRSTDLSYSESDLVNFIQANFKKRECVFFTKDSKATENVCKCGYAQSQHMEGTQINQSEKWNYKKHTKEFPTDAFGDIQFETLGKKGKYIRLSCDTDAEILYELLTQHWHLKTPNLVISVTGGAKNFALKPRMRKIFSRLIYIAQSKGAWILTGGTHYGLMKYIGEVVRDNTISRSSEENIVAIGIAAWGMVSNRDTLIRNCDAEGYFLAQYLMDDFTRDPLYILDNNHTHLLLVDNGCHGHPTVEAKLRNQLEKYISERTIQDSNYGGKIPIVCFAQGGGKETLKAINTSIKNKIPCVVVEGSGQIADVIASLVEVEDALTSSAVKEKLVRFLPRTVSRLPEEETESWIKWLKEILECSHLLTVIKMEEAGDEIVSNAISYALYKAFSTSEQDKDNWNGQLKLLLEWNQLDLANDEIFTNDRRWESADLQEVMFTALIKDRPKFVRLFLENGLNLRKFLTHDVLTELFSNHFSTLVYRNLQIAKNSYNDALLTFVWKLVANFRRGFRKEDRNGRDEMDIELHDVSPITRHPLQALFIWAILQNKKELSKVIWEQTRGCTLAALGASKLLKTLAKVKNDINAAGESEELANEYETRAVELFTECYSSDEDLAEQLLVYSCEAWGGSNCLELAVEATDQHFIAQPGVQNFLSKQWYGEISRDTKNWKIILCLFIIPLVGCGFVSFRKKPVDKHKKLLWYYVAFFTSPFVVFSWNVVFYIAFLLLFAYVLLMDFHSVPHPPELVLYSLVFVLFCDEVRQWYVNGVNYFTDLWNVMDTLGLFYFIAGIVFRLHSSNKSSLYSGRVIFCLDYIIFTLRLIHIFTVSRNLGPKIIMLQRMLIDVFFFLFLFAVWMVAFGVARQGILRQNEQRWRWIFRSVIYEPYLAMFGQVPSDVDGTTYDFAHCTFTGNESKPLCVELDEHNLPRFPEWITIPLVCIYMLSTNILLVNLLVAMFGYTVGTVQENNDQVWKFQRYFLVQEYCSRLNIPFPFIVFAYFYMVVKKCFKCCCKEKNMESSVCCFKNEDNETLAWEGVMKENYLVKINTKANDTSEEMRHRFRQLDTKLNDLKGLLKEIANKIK

CCNC(=O)c1cnn(-c2ccc(-n3ccc(Cl)c(Cl)c3=O)cc2)c1C(F)(F)F [Compound 22]
inhibition at 10 µM: < 5%
